These compounds were tested against T1, human CGT (Homo sapiens, UniProt Q16880) (assay: Assay 1: CGT Enzymatic Assay (RapidFire/MS/MS, 0.01% Tween 80)). Conditions: Table 1, Compounds of Formula (I) and Formula (II); CGT enzymatic assay, C6-NBD-dihydro-galactosylceramide readout; read-out: IC50.
T1 sequence (Q16880 21-541): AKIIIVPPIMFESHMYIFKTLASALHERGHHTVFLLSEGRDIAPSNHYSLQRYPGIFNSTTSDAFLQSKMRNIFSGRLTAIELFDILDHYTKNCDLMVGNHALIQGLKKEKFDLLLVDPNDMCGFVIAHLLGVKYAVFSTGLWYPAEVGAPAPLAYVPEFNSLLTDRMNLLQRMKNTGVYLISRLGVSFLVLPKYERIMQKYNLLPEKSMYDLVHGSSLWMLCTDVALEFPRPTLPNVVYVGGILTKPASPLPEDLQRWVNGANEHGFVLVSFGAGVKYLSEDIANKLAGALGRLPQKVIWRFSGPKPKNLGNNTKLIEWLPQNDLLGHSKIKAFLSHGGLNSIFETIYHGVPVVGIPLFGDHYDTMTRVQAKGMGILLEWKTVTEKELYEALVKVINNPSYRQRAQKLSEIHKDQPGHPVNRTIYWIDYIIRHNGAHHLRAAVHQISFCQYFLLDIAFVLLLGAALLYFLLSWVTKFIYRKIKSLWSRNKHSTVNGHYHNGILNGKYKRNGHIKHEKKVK
Assay type: biochemical

| IC50 | Structure (SMILES) |
| --- | --- |
| < 1000 nM | CC1(C)N(c2ccc(Cl)cc2)C(=O)N(c2ccc(C#N)cc2)C1(O)c1cccc(OC(F)(F)F)c1 (stereo not drawn) [Compound 273, 4-(3-(4-chlorophenyl)-5-hydroxy-4,4-dimethyl-2-oxo-5-(3-(trifluoromethoxy)phenyl)imidazolidin-1-yl)benzonitrile] |
| < 1000 nM | N#Cc1ccc(N2C(=O)N(c3ccc(C#N)cc3)C(O)(c3cccc(C#N)c3)C23CCC3)cc1 (stereo not drawn) [Compound 294, 4,4′-(8-(3-cyanophenyl)-8-hydroxy-6-oxo-5,7-diazaspiro[3.4]octane-5,7-diyl)dibenzonitrile] |

Same assay, conditions: Table 1, Compounds of Formula (I) and Formula (II); CGT enzymatic assay; read-out: IC50

| Structure (SMILES) | IC50 |
| --- | --- |
| O=C1N(c2ccc(Cl)cc2)C(=O)C(O)(c2ccc(Cl)cc2)N1c1ccc(Cl)cc1 (stereo not drawn) [Compound 154, 1,3,5-tris(4-chlorophenyl)-5-hydroxyimidazolidine-2,4-dione] | 50000 to 100000 nM |
| O=C1N(c2ccc(Cl)cc2)C2(CC2)C(O)(c2cccc(Cl)c2)N1c1ccc(Cl)cc1 (stereo not drawn) [Example 228, 7-(3-chlorophenyl)-4,6-bis(4-chlorophenyl)-7-hydroxy-4,6-diazaspiro[24]heptan-5-one] | < 1000 nM |
| CCCc1c(-c2cccc(OC(F)(F)F)c2)n(-c2ccc(Cl)cc2)c(=O)n1-c1ccc(Cl)cc1 [Compound 245, 1,3-bis(4-chlorophenyl)-4-propyl-5-(3-(trifluoromethoxy)phenyl)-1,3-dihydro-2H-imidazol-2-one] | < 1000 nM |
| C#Cc1cccc(C2(O)C(C)N(c3ccc(Cl)cc3)C(=O)N2c2ccc(Cl)cc2)c1 (stereo not drawn) [Compound 93, 1,3-bis(4-chlorophenyl)-4-(3-ethynylphenyl)-4-hydroxy-5-methylimidazolidin-2-one] | < 1000 nM |
| Cc1ccc(N2C(=O)N(c3ccc(C)cc3)C(O)(c3cccc(OC(F)(F)F)c3)C23CCC3)cc1 (stereo not drawn) [Compound 239, 8-hydroxy-5,7-di-p-tolyl-8-(3-(trifluoromethoxy)phenyl)-5,7-diazaspiro[3.4]octan-6-one] | < 1000 nM |
| CCCc1c(C(=O)c2ccccc2)n(-c2ccc(Cl)cc2)c(=O)n1-c1ccc(Cl)cc1 [Example 27, 4-benzoyl-1,3-bis(4-chlorophenyl)-5-propyl-1,3-dihydro-2H-imidazol-2-one] | 10000 to 50000 nM |
| CCCC1(C)N(c2ccc(Cl)cc2)C(=O)N(c2ccc(Cl)cc2)C1(O)c1cccc(OC(F)(F)F)c1 (stereo not drawn) [Example 170, 1,3-bis(4-chlorophenyl)-4-hydroxy-5-methyl-5-propyl-4-(3-(trifluoromethoxy)phenyl)imidazolidin-2-one] | < 1000 nM |
| O=C1N(c2ccc(Br)cc2)C(=O)C(O)(C2Cc3ccccc3C2)N1c1ccc(Br)cc1 (stereo not drawn) [Example 215, 1,3-bis(4-bromophenyl)-5-(2,3-dihydro-1H-inden-2-yl)-5-hydroxyimidazolidine-2,4-dione] | 50000 to 100000 nM |
| O=C1N(c2ccc(Br)cc2)C(=O)C(O)(c2ccc3ccccc3c2)N1c1ccc(Br)cc1 (stereo not drawn) [Compound 148, 1,3-bis(4-bromophenyl)-5-hydroxy-5-(naphthalen-2-yl)imidazolidine-2,4-dione] | 50000 to 100000 nM |
| O=C1N(c2ccc(Cl)cc2)CC(O)(c2cccc(Cl)c2)N1c1ccc(Cl)cc1 (stereo not drawn) [Example 39, 4-(3-chlorophenyl)-1,3-bis(4-chlorophenyl)-4-hydroxyimidazolidin-2-one] | < 1000 nM |
| O=C1N(c2ccc(Br)cc2)CC(O)(c2ccccc2)N1c1ccc(Cl)cc1 (stereo not drawn) [Example 43, 1-(4-bromophenyl)-3-(4-chlorophenyl)-4-hydroxy-4-phenylimidazolidin-2-one] | 1000 to 10000 nM |
| CC1N(c2ccc(Cl)cc2)C(=O)N(c2ccc(Cl)cc2)C1(O)c1cccc(Br)c1 (stereo not drawn) [Compound 94, 4-(3-bromophenyl)-1,3-bis(4-chlorophenyl)-4-hydroxy-5-methylimidazolidin-2-one] | < 1000 nM |
| CCOC(=O)C1(O)C(c2ccccc2)N(c2ccc(Cl)cc2)C(=O)N1c1ccc(Cl)cc1 (stereo not drawn) [Example 217, ethyl 1,3-bis(4-chlorophenyl)-4-hydroxy-2-oxo-5-phenylimidazolidine-4-carboxylate] | 1000 to 10000 nM |
| CC1(C)N(c2ccc(Cl)cc2)C(=O)N(c2ccc(Cl)cc2)C1(O)c1cncc(C#N)c1 (stereo not drawn) [Example 186, 5-(1,3-bis(4-chlorophenyl)-4-hydroxy-5,5-dimethyl-2-oxoimidazolidin-4-yl)nicotinonitrile] | < 1000 nM |
| CC(C)(C)c1cccc(C2(O)CN(c3ccc(Br)cc3)C(=O)N2c2ccc(Br)cc2)c1 (stereo not drawn) [Compound 127, 1,3-bis(4-bromophenyl)-4-(3-(tert-butyl)phenyl)-4-hydroxyimidazolidin-2-one] | 10000 to 50000 nM |
| CC(C)c1cccc(C2(O)CN(c3ccc(Br)cc3)C(=O)N2c2ccc(Br)cc2)c1 (stereo not drawn) [Compound 59, 1,3-bis(4-bromophenyl)-4-hydroxy-4-(3-isopropylphenyl)imidazolidin-2-one] | 1000 to 10000 nM |
| Cc1cccc(C2(O)[C@@H](C)N(c3ccc(Cl)cc3)C(=O)N2c2ccc(Cl)cc2)c1 (stereo partly drawn) [Example 36-2] | 1000 to 10000 nM |
| O=C1N(c2ccc(Br)cc2)C(=O)C(O)(c2ccc[nH]2)N1c1ccc(Br)cc1 (stereo not drawn) [Example 211, 1,3-bis(4-bromophenyl)-5-hydroxy-5-(1H-pyrrol-2-yl)imidazolidine-2,4-dione] | 10000 to 50000 nM |
| CCCCC1(O)C(=O)N(c2ccc(Br)cc2)C(=O)N1c1ccc(Br)cc1 (stereo not drawn) [Compound 152, 1,3-bis(4-bromophenyl)-5-butyl-5-hydroxyimidazolidine-2,4-dione] | 50000 to 100000 nM |
| O=C1N(c2ccc(Cl)cc2Cl)CC(O)(c2ccccc2)N1c1ccc(Cl)cc1Cl (stereo not drawn) [Example 57, 1,3-bis(2,4-dichlorophenyl)-4-hydroxy-4-phenylimidazolidin-2-one] | > 50000 nM |

Other lines, results leading:

| IC50 | Structure (SMILES) |
| --- | --- |
| < 1000 nM | N#Cc1cccc(C2(O)[C@@H](C3CC3)N(c3ccc(Cl)cc3)C(=O)N2c2ccc(Cl)cc2)c1 (stereo partly drawn) [Example 187-2, 3-((5R)-1,3-bis(4-chlorophenyl)-5-cyclopropyl-4-hydroxy-2-oxoimidazolidin-4-yl)benzonitrile] |
| < 1000 nM | O=C1N(c2ccc(Cl)cc2)[C@@H](C2CC2)C(O)(c2cccc(OC(F)F)c2)N1c1ccc(Cl)cc1 (stereo partly drawn) [Compound 233-1, (5S)-1,3-bis(4-chlorophenyl)-5-cyclopropyl-4-(3-(difluoromethoxy)phenyl)-4-hydroxyimidazolidin-2-one] |
| < 1000 nM | COC[C@@H]1N(c2ccc(Cl)cc2)C(=O)N(c2ccc(Cl)cc2)C1(O)c1cccc(C(F)(F)F)c1 (stereo partly drawn) [Compound 92-1, (5S)-1,3-bis(4-chlorophenyl)-4-hydroxy-5-(methoxymethyl)-4-(3-(trifluoromethyl)phenyl)imidazolidin-2-one] |
| < 1000 nM | COc1cccc(C2(O)[C@H](C)N(c3ccc(Br)cc3)C(=O)N2c2ccc(Br)cc2)c1 (stereo partly drawn) [Compound 71-1, (5S)-1,3-bis(4-bromophenyl)-4-hydroxy-4-(3-methoxyphenyl)-5-methylimidazolidin-2-one] |
| < 1000 nM | O=C1N(c2ccc(Cl)cc2)[C@]2(CCOC2)[C@](O)(c2cccc(OC(F)(F)F)c2)N1c1ccc(Cl)cc1 [Compound 234-1, (4R,5S)-1,3-bis(4-chlorophenyl)-4-hydroxy-4-(3-(trifluoromethoxy)phenyl)-7-oxa-1,3-diazaspiro[4.4]nonan-2-one] |
| 10000 to 50000 nM | CCC[C@@]1(C)N(c2ccc(Cl)cc2)C(=O)N(c2ccc(Cl)cc2)C1(O)c1cccc(OC(F)(F)F)c1 (single isomer, unassigned) [Example 170-1] |
| < 1000 nM | C[C@@]1(c2cccc(C(F)(F)F)c2)C(O)N(c2ccc(Cl)cc2)C(=O)N1c1ccc(Cl)cc1 (stereo partly drawn) [Example 190-2, (4R)-1,3-bis(4-chlorophenyl)-5-hydroxy-4-methyl-4-(3-(trifluoromethyl)phenyl)imidazolidin-2-one] |
| 10000 to 50000 nM | O=C1N(c2ccc(Br)cc2)C(O)[C@@](c2ccccc2)(C2CC2)N1c1ccc(Br)cc1 (stereo partly drawn) [Example 209-1, (4S)-1,3-bis(4-bromophenyl)-4-cyclopropyl-5-hydroxy-4-phenylimidazolidin-2-one] |
| < 1000 nM | CCC[C@]1(C)N(c2ccc(Cl)cc2)C(=O)N(c2ccc(Cl)cc2)C1(O)c1cccc(OC(F)(F)F)c1 (single isomer, unassigned) [Example 170-2] |
| < 1000 nM | CCC[C@H]1N(c2ccc(Cl)cc2)C(=O)N(c2ccc(Cl)cc2)C1(O)c1cccc(Cl)c1 (stereo partly drawn) [Compound 114-2, (5R)-4-(3-chlorophenyl)-1,3-bis(4-chlorophenyl)-4-hydroxy-5-propylimidazolidin-2-one] |
| < 1000 nM | Cc1ccc(N2C(=O)N(c3ccc(C)cc3)C(O)(c3cccc(OC(F)(F)F)c3)[C@@H]2C(C)C)cc1 (single isomer, unassigned) [Compound 235-1] |
| 1000 to 10000 nM | C[C@]1(C(F)(F)F)N(c2ccc(Cl)cc2)C(=O)N(c2ccc(Cl)cc2)C1(O)c1cccc(OC(F)(F)F)c1 (single isomer, unassigned) [Example 159-1] |
| < 1000 nM | N#Cc1cccc(C2(O)[C@@H](C3CCC3)N(c3ccc(Cl)cc3)C(=O)N2c2ccc(Cl)cc2)c1 (stereo partly drawn) [Example 194-2, 3-((5R)-1,3-bis(4-chlorophenyl)-5-cyclobutyl-4-hydroxy-2-oxoimidazolidin-4-yl)benzonitrile] |
| < 1000 nM | CCC[C@H]1N(c2ccc(Cl)cc2)C(=O)N(c2ccc(Cl)cc2)C1(O)c1cccc(CC)c1 (stereo partly drawn) [Compound 89-2, (5R)-1,3-bis(4-chlorophenyl)-4-(3-ethylphenyl)-4-hydroxy-5-propylimidazolidin-2-one] |
